Ends that are not written are not given here. Peptide text beside a SMILES is read from it.
How the values were obtained:
CD-1 male mice [1] = assay: Memory-enhancing effect on retention of FAAT in T-maze, weakly trained mice (poor retention in vehicle controls), post-training ICV administration; assay type: in vivo
Method: (§1) After 1 week in the laboratory, CD-1 male mice obtained from Charles River Breeding Laboratories were caged individually 24-28 hours prior to training and remained singly housed until retention was tested one week later. Animal rooms were on a 12 hour light/dark cycle with lights going on at the hour of 0600. Median body weight was 35 g, with a range of 33-38 g. Mice were assigned randomly to groups of 15 in the experiments reported in FIGS. 1-18 and groups of 10 for the dose-response curves (FIGS. 19 and 20) and were trained and tested between the hours of 0700 and 1500.
With the exception of Val Phe and Phe Val from Sigma, all peptides used in these studies were synthesized and analyzed to establish purity by standard methods at the Beckman Research Institute. Peptides were dissolved in: (1) saline; (2) 8% vol/vol dimethyl sulfoxide: (3) glacial acetic acid neutralized with […]; or (4) NaOH neutralized with HCl. […] Analysis of variance showing insignificant differences among the latter, the value for the most frequently employed (No. 2 above) was used for comparison with groups receiving test peptides.
The T-maze used for footshock active avoidance training (FAAT) consisted of a black plastic alley (46 cm long) with a start box at one end and two goal boxes (17.5 cm long) at the other. […]

CD-1 male mice [2] = assay: Amnestic effect on retention of footshock active avoidance training (FAAT) in T-maze, well-trained mice, post-training ICV administration; assay type: in vivo; conditions: for amnestic effect on retention of FAAT: well-trained mice, post-training ICV, 6.14 nmol of peptide per mouse except dose-response curves, retention tested one week later; for molar amnestic efficacy / potency compared with another peptide: dose-response curves or FIG. 19
Method: as §1
With the exception of Val Phe and Phe Val from Sigma, all peptides used in these studies were synthesized and analyzed to establish purity by standard methods at the Beckman Research Institute. Peptides were dissolved in: (1) saline; (2) 8% vol/vol dimethyl sulfoxide: (3) glacial acetic acid neutralized with […]; or (4) NaOH neutralized with HCl.
With exception of dose-response curves, the experiments reported below tested whether or not there was an amnestic: effect at 6.14 nmol of peptide per mouse.
The T-maze used for footshock active avoidance training (FAAT) consisted of a black plastic alley (46 cm long) with a start box at one end and two goal boxes (17.5 cm long) at the other. The start box was separated from the alley by a plastic guillotine door that prevented movement down the alley until training began. The alley was 12.5 cm deep and 9.8 cm wide. An electrifiable stainless steel rod floor ran throughout the maze.
Mice were not permitted to explore the maze before training. A block of training trials began when a mouse was placed in the start box. The guillotine door was raised and a muffled doorbell-type buzzer sounded simultaneously; footshock was 5 seconds later through a scrambled grid floor shocker (Colbourn Instruments, Model E13-08). The goal box first entered during the first set of trials was designated as "incorrect", and footshock was continued until the mouse entered the other goal box, which in all subsequent trials was designated "correct" for the particular mouse. At the end of each group of trials, the mouse was removed to its home cage.
As training proceeded, a mouse made one of two types of responses. A response latency longer than 5 seconds was classed as an escape from the footshock. A response latency less than or equal to 5 seconds was considered an avoidance, since the mouse avoided receiving a footshock. Two exclusion criteria were applied to reduce learning variability among mice, as follows. On the first training trials, mice with escape latencies greater than 20 seconds were discarded. Mice not having at least one errorless escape latency between 1.5 and 3.5 seconds on training trials 3 or 4 were excluded. […] Mice received five such training trials. One week after training and post-trial administration of vehicle alone or vehicle containing test substance, T-maze training was resumed until each mouse made five avoidance responses in six consecutive training trials (trials to criterion). The recall score was taken to be the percentage of tested mice remembering original training.
In these instances, training was performed under conditions that tend to maximize learning (sound intensity, 65 decibels; footshock current, 0.35 mA; intertrial interval, 45 seconds).

CD-1 male mice [3] = conditions: cited from earlier work; for amnestic effect on retention of FAAT (literature): post-training ICV in mice, references 1 and 12
[4] = test system: hippocampal neurons in culture; conditions: reference 17; cited from earlier work

With `NC(=O)CC[C@H](N)C(=O)N[C@@H](Cc1ccccc1)C(=O)N[C@@H](Cc1ccccc1)C(=O)NCC(=O)O` [Gln Phe Phe Gly] (H-QFFG-OH) the “memory-enhancing potency compared with other peptides” value (CD-1 male mice [1]; poor retention in vehicle controls) was “by far the most potent” and the “amnestic effect on retention of FAAT” value (CD-1 male mice [2]) was “amnestic”.

For `CC(C)[C@H](N)C(=O)N[C@@H](Cc1ccccc1)C(=O)N[C@@H](Cc1ccccc1)C(=O)O` [Val Phe Phe] (H-Val-Phe-Phe-OH), the memory-enhancing effect (CD-1 male mice [1]; weakly trained animals, ICV) was “memory enhancer”, the “molar amnestic efficacy / potency compared with another peptide” value (CD-1 male mice [2]) was “not significantly different from that of the β-A4 homologue” and the “amnestic effect on retention of FAAT” value (CD-1 male mice [2]) was “amnestic”.

In the case of `CC(C)[C@H](N)C(=O)N[C@@H](Cc1ccccc1)C(=O)N[C@H](C(=O)O)[C@@H](C)O` [Val Phe Thr] (H-Val-Phe-Thr-OH), the “amnestic effect on retention of FAAT” value (CD-1 male mice [2]) is reported as “amnestic”.

In the case of “His Ser Asp Ala Val Phe Thr Asp Asn Tyr Thr Arg Leu Lys Gln Met Ala Val Lys Lys Tyr Leu Asn Ser Ile Leu Asn-NH2 (HSDAVFTDNYTRLKQMAVKKYLNSILN-NH2) [VIP]”, the “amnestic effect on retention of FAAT (literature)” value (CD-1 male mice [3]) is listed as “amnestic”.

With KLVFFAE [Lys Leu Val Phe Phe Ala Glu] the “amnestic effect on retention of FAAT” value (CD-1 male mice [2]) was “not amnestic”.

For “Pro Arg Pro Gly Pro Gln Gln Phe Phe Gly Leu Met-NH2 (PRPGPQQFFGLM-NH2) [Substance Pro]”, the “effect on trophic and toxic effects of β-A4” value [4] is listed as “counteract trophic and toxic effects of β-A4”.

With VFFAE [Val Phe Phe Ala Glu] the “molar amnestic efficacy / potency compared with another peptide” value (CD-1 male mice [2]) was “lesser potency” and the “amnestic effect on retention of FAAT” value (CD-1 male mice [2]) was “amnestic”.

In the case of VFFAEDVGSNK [β-(18-28)], the “amnestic effect on retention of FAAT (literature)” value (CD-1 male mice [3]) is listed as “amnestic”.

In the case of “β-(1-18): β-A4 fragment of reference 1, probably misprint of β-(1-28)”, the “amnestic activity at lower dose (literature)” value (CD-1 male mice [3]; 1.5 nmol per mouse, reference 1) is given as “active”.
